What is called IC50 is the midpoint of a concentration-inhibition curve.

Like-named read-outs stand apart in the source and are kept apart here. Bounds are passed on as bounds.

The source of these data is paper PMC3073677 (Journal of molecular graphics & modelling, 2010).

The test system of experiment [1] is DHFR. The following applies: cited from earlier work.
Experiment [2] has as its target T1, human DHFR (Homo sapiens, UniProt P00374).
T1 sequence (P00374 1-187): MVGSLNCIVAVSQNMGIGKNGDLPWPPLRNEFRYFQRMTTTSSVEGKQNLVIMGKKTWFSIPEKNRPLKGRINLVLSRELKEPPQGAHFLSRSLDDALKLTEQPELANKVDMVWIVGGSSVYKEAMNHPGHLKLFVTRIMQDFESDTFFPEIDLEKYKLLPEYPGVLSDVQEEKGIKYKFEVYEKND
The experiment in a line: Human DHFR enzyme inhibition assay. The experiment is classed as biochemical.

Consider “N-α-(4-amino-4-deoxypteroyl)-N δ-hemiphthaloyl-L-ornithine [PT523]”, for which the IC50 in experiment [1] (classical inhibitors) was 12.2 nM.

Consider `CN(Cc1cnc2nc(N)nc(N)c2n1)c1ccc(C(=O)N[C@@H](CCC(=O)O)C(=O)O)cc1` [methotrexate], for which the IC50 in experiment [1] was […].

Molecule `CCc1nc(N)nc(N)c1C#CCc1cc(OC)c(OC)c(OC)c1` [Compound 35, 2,4-diamino-5-(3-(3,4,5-trimethoxyphenyl)prop-1-ynyl)-6-ethylpyrimidine] came in with an IC50 in experiment [2] of less than 100 nM.
